# Measurements taken from patent US20260130933A1, “PHARMACEUTICAL COMPOSITION FOR PREVENTION OR TREATMENT OF NEPHROPATHY AND/OR DIABETES MELLITUS, COMPRISING ENAVOGLIFLOZIN” (DAEWOONG PHARMACEUTICAL CO., LTD., priority 2022, published 2026).
# Test: Example 2: phase 3 trial, enavogliflozin 0.3 mg vs dapagliflozin 10 mg once a day for 24 weeks added to metformin in patients with type 2 diabetes (same efficacy, exploratory and safety endpoints)
# Type: in vivo, human
# Protocol: Subjects who met the inclusion/exclusion criteria were administered a placebo of the clinical trial drug under single-blind (subject blinding) conditions during a 2-week run-in period while continuing to receive metformin. […] The randomized subjects were administered two tablets of the clinical trial drug for each administration group once a day, and then visited the institution at weeks 6, 12, 18, and 24 during the 24-week administration period to conduct efficacy and safety evaluations.
# • 1. Change in HbA1c at week 24 after administration of clinical trial drug compared to Visit 2 (randomization)
# • 1. Change in HbA1c at each time point of weeks 6, 12, and 18 after administration of clinical trial drug compared to Visit 2 (randomization) • 2. Change in FPG at each time point of weeks 6, 12, 18, and 24 after administration of clinical trial drug compared to Visit 2 (randomization) • 3. Proportion of subjects achieving HbA1c<7% at each time point of weeks 6, 12, 18, and 24 after administration of clinical trial drug • 4. Proportion of subjects achieving HbA1c<6.5% at each time point of weeks 6, 12, 18, and 24 after administration of clinical trial drug • 5. Proportion of subjects achieving therapeutic response (HbA1c change (HbA1c at Visit 2-HbA1c at each evaluation time point)>0.5% or HbA1c<7% at each evaluation time point compared to Visit 2 (randomization)) at each time point of weeks 6, 12, 18 and 24 after administration of clinical trial drug
# • 1. Change in fasting c-peptide at each time point of weeks 6, 12, 18, and 24 after administration of clinical trial drug compared to Visit 2 (randomization) • 2. Change in body weight at each time point of weeks 6, 12, 18, and 24 after administration of clinical trial drug compared to Visit 2 (randomization) • 3. Change in fasting lipid concentration (total cholesterol, LDL-C, HDL-C, and triglycerides) at each time point of weeks 6, 12, 18, and 24 after administration of clinical trial drug compared to Visit 2 (randomization) • 4. Changes in systolic or diastolic blood pressure at each time point of weeks 6, 12, 18, and 24 after administration of clinical trial drug compared to Visit 2 (randomization) • 5. Changes in β-cell function and insulin resistance measured by HOMA-β and HOMA-IR at each time point of weeks 6, 12, 18, and 24 after administration of clinical trial drug compared to Visit 2 (randomization) • 6. Changes in renal function-related indicators (UACR, UGCR) measured by UACR at each time point of weeks 6, 12, 18, and 24 after administration of clinical trial drug compared to Visit 2 (randomization) • 7. Changes in obesity-related indicators (adiponectin, leptin) at each time point of weeks 6, 12, 18, and 24 after administration of clinical trial drug compared to Visit 2 (randomization)
# [1] = week 6, per-protocol set, enavogliflozin 0.3 mg, dapagliflozin 10 mg
# [2] = week 12, modified per-protocol set 1, enavogliflozin 0.3 mg, dapagliflozin 10 mg
# [3] = week 12, per-protocol set, enavogliflozin 0.3 mg vs dapagliflozin 10 mg
# [4] = week 12, per-protocol set, enavogliflozin 0.3 mg, dapagliflozin 10 mg
smiles,measurement,setting,value
"OC[C@H]1O[C@@H](c2cc(Cc3ccc(C4CC4)cc3)c(Cl)c3c2CCO3)[C@H](O)[C@@H](O)[C@@H]1O [Enavogliflozin, (2S,3R,4R,5S,6R)-2-(7-chloro-6 (4-cyclopropylbenzyl)-2,3-dihydrobenzofuran-4-yl)-6-(hydroxymethyl)tetrahydro-2H-pyran-3,4,5-triol]","Change from baseline in fasting c-peptide, ANCOVA LS mean (SE)",[1],−0.07(0.02) ng/mL
same,"Change from baseline in fasting c-peptide, Mean (SD)",[1],−0.06(0.19) ng/mL
same,"Change from baseline in fasting c-peptide, Median",[1],-0.03 ng/mL
same,"FPG, Mean (SD)",[1],118.44 mg/dL
same,"FPG, Median",[1],115.00 mg/dL
same,"HbA1c, Mean (SD)",[1],7.13%
same,"HbA1c, Median",[1],6.98%
same,"Subjects achieving HbA1c target of <6.5%, (%)",[1],(12.63) %
same,"Subjects achieving therapeutic glycemic response, (%)",[1],(78.95) %
same,"body weight, Mean (SD)",[1],68.61(11.27) kg
same,"body weight, Median",[1],67.30 kg
same,"fasting c-peptide, Mean (SD)",[1],0.66(0.24) ng/mL
same,"fasting c-peptide, Median",[1],0.60 ng/mL
same,"FPG change from baseline, LS mean (SE)",week 12,−29.70(1.96) mg/dL
same,"HOMA-IR change from baseline, LS mean (SE)",week 12,−1.58(0.17)
same,"HOMA-β change from baseline, LS mean (SE)",week 12,5.57(3.08)
same,"HbA1c change from baseline, LS mean (SE)",week 12,−0.83(0.06) % p
same,"LDL-C change from baseline, LS mean (SE)",week 12,1.86(1.68) mg/dL
same,Subjects achieving HbA1c target of <7%,week 12,(68.09) %
same,Subjects achieving HbA1c<6.5%,week 12,15.96%
same,Subjects achieving therapeutic response (HbA1c change >0.5% or HbA1c<7%),week 12,88.30%
same,"UACR change from baseline, LS mean (SE)",week 12,−21.65(7.38) g/kg
same,"UGCR change from baseline, LS mean (SE)",week 12,64.70(2.58) mg/mg
same,"diastolic blood pressure change from baseline, LS mean (SE)",week 12,−4.19(0.79) mmHg
same,"fasting c-peptide change from baseline, LS mean (SE)",week 12,−0.08(0.02) ng/ml
same,"leptin change from baseline, LS mean (SE)",week 12,−2.64(0.49) ng/mL
same,"FPG change from baseline, LS mean difference","week 12, vs dapagliflozin",0.42 mg/dL
same,"HDL-C change from baseline, LS mean difference","week 12, vs dapagliflozin",0.06 mg/dL
same,"HOMA-IR change from baseline, LS mean difference","week 12, vs dapagliflozin",0.02
same,"HOMA-β change from baseline, LS mean difference","week 12, vs dapagliflozin",−3.17
same,"HbA1c change from baseline, LS mean difference","week 12, vs dapagliflozin",−0.03 % p
same,"LDL-C change from baseline, LS mean difference","week 12, vs dapagliflozin",1.30 mg/dL
same,Odds ratio for achieving HbA1c<6.5%,"week 12, vs dapagliflozin",0.51
same,Odds ratio for achieving HbA1c<7%,"week 12, vs dapagliflozin",1.21
same,Odds ratio for achieving therapeutic response,"week 12, vs dapagliflozin",2.04
same,"UACR change from baseline, LS mean difference","week 12, vs dapagliflozin",−18.27
same,"UGCR change from baseline, LS mean difference","week 12, vs dapagliflozin",19.57 mg/mg
same,"body weight change from baseline, LS mean difference","week 12, vs dapagliflozin",-0.19 kg
same,"diastolic blood pressure change from baseline, LS mean difference","week 12, vs dapagliflozin",0.16 mmHg
same,"fasting c-peptide change from baseline, LS mean difference","week 12, vs dapagliflozin",0.01 ng/mL
same,"leptin change from baseline, LS mean difference","week 12, vs dapagliflozin",0.07 ng/mL
same,"systolic blood pressure change from baseline, LS mean difference","week 12, vs dapagliflozin",0.26 mmHg
same,"total cholesterol change from baseline, LS mean difference","week 12, vs dapagliflozin",3.01 mg/dL
same,"triglyceride change from baseline, LS mean difference","week 12, vs dapagliflozin",2.57 mg/dL
same,Subjects achieving HbA1c target of <7%,"week 12, listed as enavogliflozin",68.09%
same,"Change from baseline in total cholesterol, ANCOVA LS mean difference","week 12, modified per-protocol set 1, enavogliflozin 0.3 mg vs dapagliflozin 10 mg",3.01 mg/dL
same,"Change from baseline in Total cholesterol, ANCOVA LS mean (SE)",[2],7.26(1.98) mg/dL
same,"Change from baseline in Total cholesterol, Mean (SD)",[2],5.74(18.70) mg/dL
same,"Change from baseline in total cholesterol, Median",[2],6.00 mg/dL
same,"fasting Total cholesterol, Mean (SD)",[2],157.39(31.50) mg/dL
same,"fasting Total cholesterol, Median",[2],150.00 mg/dL
same,"Change from baseline in FPG, ANCOVA LS mean difference",[3],0.42 mg/dL
same,"Change from baseline in HbA1c, ANCOVA LS mean difference",[3],−0.03 % p
same,"Change from baseline in body weight, ANCOVA LS mean difference",[3],-0.19 kg
same,"Change from baseline in fasting c-peptide, ANCOVA LS mean difference",[3],0.01 ng/mL
same,"Odds ratio for achieving HbA1c target of <6.5%, logistic regression model",[3],0.51
same,"Odds ratio for achieving therapeutic glycemic response, logistic regression model",[3],2.04
same,"Change from baseline in FPG, ANCOVA LS mean (SE)",[4],-29.70 mg/dL
same,"Change from baseline in FPG, Mean (SD)",[4],-27.74 mg/dL
same,"Change from baseline in FPG, Median",[4],-26.00 mg/dL
same,"Change from baseline in HbA1c, ANCOVA LS mean (SE)",[4],−0.83 % p
same,"Change from baseline in HbA1c, Mean (SD)",[4],−0.77 % p
same,"Change from baseline in HbA1c, Median",[4],−0.65 % p
same,"Change from baseline in body weight, ANCOVA LS mean (SE)",[4],−2.81(0.23) kg
same,"Change from baseline in body weight, Mean (SD)",[4],−2.78(2.48) kg
same,"Change from baseline in body weight, Median",[4],-2.75 kg
same,"Change from baseline in fasting c-peptide, ANCOVA LS mean (SE)",[4],−0.08(0.02) ng/mL
same,"Change from baseline in fasting c-peptide, Mean (SD)",[4],−0.07(0.21) ng/mL
same,"Change from baseline in fasting c-peptide, Median",[4],-0.07 ng/mL
same,"FPG, Mean (SD)",[4],117.00 mg/dL
